These are literature values, as cited in US20240139108A1, “ORAL PHARMACEUTICAL COMPOSITION OF ARSENIC TRIOXIDE” (INTAS PHARMACEUTICALS LTD., priority 2021, published 2024).

The conditions of data set [1]: orally administered versus same amount administered intravenously.

As for Diarsenic trioxide, the solubility in water entry is on record as “low solubility in water”. Besides, in data set [1], the peak plasma concentration entry is given as “lower peak plasma concentration”; the “prolongation of the QT interval and ventricular tachycardia” value is “less prolongation of the QT interval and ventricular tachycardia”.
